According to US5688957A, “[(3"-thioxacyclohex-1"-enyl)]-but-3'-ene-1'-ynyl]aryl and [(3"-thioxacyclohex-1"-enyl)]-but-3'-ene-1'-ynyl]heteroaryl carboxylic acids and esters having retinoid-like biological activity” (Allergan, priority 1995, dated 1997):

Test system: ornithine decarboxylase (ODC)
Assay: inhibition of TPA induction of ornithine decarboxylase (ODC) activity
Type: in vivo
Conditions: for IC60: concentration which results in 60% inhibition; for IC80: IC80 column
Text: The retinoid-like activity of these compounds is confirmed through the classic measure of retinoic acid activity involving the effects of retinoic acid on ornithine decarboxylase. The original work on the correlation between retinoic acid and decrease in cell proliferation was done by Verma & Boutwell, Cancer Research, 1977, 37,2196-2201. That reference discloses that ornithine decarboxylase (ODC) activity increased precedent to polyamine biosynthesis. It has been established elsewhere that increases in polyamine synthesis can be correlated or associated with cellular proliferation. Thus, if ODC activity could be inhibited, cell hyperproliferation could be modulated. Although all causes for ODC activity increases are unknown, it is known that 12-0-tetradecanoylphorbol-13-acetate (TPA) induces ODC activity. Retinoic acid inhibits this induction of ODC activity by TPA. […] The results of this assay for certain exemplary compounds of the invention are shown in Table 1 below, wherein either the IC80 or IC60 value for each exemplary compound is indicated in namolar concentration units. (As is known in the art, the IC60 value is that concentration of the compound (in nanomols) which results in 60% inhibition.)

SMILES | IC60 [nM] | IC80 [nM]
CCOC(=O)c1ccc(C#C/C=C/C2=C(C)SCCC2(C)C)cc1 [Compound 1, Ethyl 4-[4'-(2",6",6",-Trimethyl-3"-thioxacyclohex-1"-enyl)-but-3'(E)-ene-1'-ynyl]benzoate] | 3.8 | –
CC1=C(/C=C/C#Cc2ccc(C(=O)O)cc2)C(C)(C)CCS1 [Compound 2, 4-[4'-(2",6",6"-Trimethyl-3"-thioxacyclohex-1"-enyl) -but-3'(E)-ene-1'-ynyl]benzoic Acid] | 1.4 | –
CCOC(=O)c1ccc(C#C/C=C/C2=C(C)SCCC2(C)C)nc1 [Compound 3, Ethyl 6-[4'-(2",6",6"-Trimethyl-3"-thioxacyclohex-1"-enyl)-but-3'(E)-ene-1'-ynyl]nicotinate] | – | 28
CC1=C(/C=C/C#Cc2ccc(C(=O)O)cn2)C(C)(C)CCS1 [Compound 4, 6-[4'-(2",6",6"-Trimethyl-3"-thioxacyclohex-1"-enyl)-but-3'(E) -ene-1'-ynyl]nicotinic Acid] | – | 33.6
